We go through 2 compounds from patent US7910367B2, “Cell culture model and applications thereof” (L'Oreal, priority 2006, dated 2011).

No end group written: not given here.

For test [1], the system named is nerve cell-keratinocyte-melanocyte (N/K/M) multicellular model (melanogenesis). The test can be described thus: Melanin amount in nerve cell-keratinocyte-melanocyte (N/K/M) multicellular model under noradrenergic stress. It is filed as cell-based, human. The note with it: for amount of melanin, +noradrenalin: 10^−5 M noradrenalin alone (Control) or with CGRP8-37 10^−6 M or Calmiskin 0.03%; for melanin synthesis by melanocytes (in words): multicellular model. The procedure: The experimental data were analyzed by means of the PRISM® software (graph pad software). The intergroup comparisons were carried out by analysis of variance (ANOVA) using Dunnett's multiple comparison test. The comparisons between two samples were carried out by analysis using the T test. They represent the mean of 4 independent experiments. They are expressed in μg of melanin/ml.

Test [2] deals with CGRP release by nerve cells. In words: Measurement of CGRP release in culture supernatants of the N/K/M model (ELISA). It is filed as cell-based, rat. The procedure:
At the end of the experiment described in Example 3, the supernatants from the wells and from the inserts were collected separately and immediately frozen at −80° C. in order to analyze the CGRP content. The CGRP content was measured in the culture supernatants by means of an ELISA assay (Rat CGRP enzyme Immuno Assay Kit, Spi Bio A05482) according to the protocol recommended by the supplier. The results are expressed in μg of CGRP/ml of medium. The analysis of the results was carried out as described above.
On the technique in general: An ELISA detects its analyte on a solid surface through an enzyme-linked reagent.

Test [3] deals with nerve cells of the N/K/M multicellular model. The test can be described thus: Growth of nerve endings through the porous insert (anti-β-tubulin epifluorescence). It is filed as cell-based. To be noted: 10^−5 M noradrenalin, 10 days. On the procedure:
Using a multicellular model as obtained in Example 1, the cells were cultured in the absence or presence of 10^−5 M noradrenalin, for 10 days.
The N/K/M culture medium was deposited into the culture wells and into the inserts.
The various media were renewed 50/50 every day.
The nerve cells were labelled with an anti-β-tubulin monoclonal antibody (Sigma T8660) and then visualized with goat anti-mouse immunoglobulin antibody-Alexa fluor 488 conjugate (Interchim A-11029).
After thorough washing in PBS, the preparations were observed by epifluorescence (Nikon Diaphot 300 microscope) and photographed.
The photographs were taken below the insert (on the keratinocyte-neuron site).

Where [4] appears, read: 10 days, mean of 4 independent experiments.

With “CGRP8-37: reference CGRP receptor antagonist (VTHRLAGLLSRSGGVVKNNFVPTNVGSKAF; ends and bridges not checked; UniProt P06881 90-119, looked up, fragment)”, in test [1] (setting [4]), the “amount of melanin, +noradrenalin” value was 21.35 ± 0.91 μg of melanin/ml. Also, the “amount of melanin, without noradrenalin” value in test [1] (10 days, no noradrenalin, CGRP8-37 10^−6 M, Calmiskin 0.03%, mean of 4 independent experiments) is given as 19.33 ± 0.48 μg of melanin/ml. Besides, the “melanin synthesis by melanocytes (in words)” value in test [1] is “considerable decrease in melanin synthesis”. Moreover, the “change in amount of melanin in the presence of noradrenalin” value in test [1] (versus 10^−5 M noradrenalin alone, Calmiskin 0.03%, CGRP8-37 10^−6 M, 10 days) was −17.2%.

On to `NC[C@H](O)c1ccc(O)c(O)c1` [noradrenalin], for which the “CGRP release in the insert (in words)” value in test [2] (insert supernatant, 10^−5 M noradrenalin, with or without 0.03% Calmiskin) is given as “very substantial”. Besides, the “CGRP content, insert” value in test [2] (supernatant of inserts (nerve cells), 10 days, 10^−5 M noradrenalin alone or with 0.03% Calmiskin) was 493.86 ± 11.57 μg of CGRP/ml of medium. In addition, the “CGRP content, culture well” value in test [2] (supernatant of wells (keratinocyte/melanocyte side), 10 days, 10^−5 M noradrenalin alone or with 0.03% Calmiskin) was 170.48 ± 19.47 μg of CGRP/ml of medium. Further, the “density of the cell extensions (nerve endings crossing the insert)” value in test [3] was “increased”. The “change in amount of melanin synthesized in the cocultures” value in test [1] (10^−5 M noradrenalin versus control without noradrenalin, 10 days) is reported as “+15%”. The “amount of melanin, +noradrenalin” value in test [1] (setting [4]) was 25.77 ± 0.72 μg of melanin/ml. In test [1], the “melanin synthesis by melanocytes (in words)” value is reported as “increase in melanin synthesis”.
